Source: paper PMC3733398 (ACS medicinal chemistry letters, 2013)
In brackets after ≈: the same amount, converted by molar mass. Several values for one entry are separate records, joined by “and”; a condition that tells them apart may be missing. Identical values can stand only once.

Assays:
XDR-Mtb HREKO = assay: microbe, parasite or virus in culture; assay type: cell-based; settings: Mycobacterium tuberculosis
CYP3A4 [1] = biological target: T1, CYP3A4 (Homo sapiens, UniProt P08684); assay: Time dependent inhibition of human CYP3A4; settings: at 10 μM
Mtb H37Rv = assay: MIC against replicating Mtb H37Rv, dual read-out; assay type: cell-based; settings: Mycobacterium tuberculosis
[2] = system: sensitive, MDR and XDR clinical Mtb strains; assay type: cell-based, Mycobacterium tuberculosis; settings: range over the DS, MDR and XDR clinical strains of Table 2
[3] = system: DS-Mtb1 (drug sensitive clinical isolate #1); assay: MIC against clinical strain DS-Mtb1; assay type: cell-based; settings: Mycobacterium tuberculosis
[4] = system: DS-Mtb2 (drug sensitive clinical isolate #2); assay: MIC against clinical strain DS-Mtb2; assay type: cell-based; settings: Mycobacterium tuberculosis, 90% growth inhibition by optical density
XDR-Mtb HRESKO = assay: microbe, parasite or virus in culture; assay type: cell-based; settings: Mycobacterium tuberculosis
MDR-Mtb HREZSKP = assay: microbe, parasite or virus in culture; assay type: cell-based; settings: Mycobacterium tuberculosis
MDR-Mtb HRERb = assay: microbe, parasite or virus in culture; assay type: cell-based; settings: Mycobacterium tuberculosis
MDR-Mtb HREKP = assay: microbe, parasite or virus in culture; assay type: cell-based; settings: Mycobacterium tuberculosis
[5] = rat, microsomes
CYP3A4 [6] = biological target: T1, CYP3A4; assay: Human cytochrome P-450 inhibition, CYP 3A4; settings: panel of human cytochrome P-450 enzymes
in vitro = in vitro ADME
in vivo = settings: rat, iv, 1 mg/kg

T1 sequence (P08684 whole entry): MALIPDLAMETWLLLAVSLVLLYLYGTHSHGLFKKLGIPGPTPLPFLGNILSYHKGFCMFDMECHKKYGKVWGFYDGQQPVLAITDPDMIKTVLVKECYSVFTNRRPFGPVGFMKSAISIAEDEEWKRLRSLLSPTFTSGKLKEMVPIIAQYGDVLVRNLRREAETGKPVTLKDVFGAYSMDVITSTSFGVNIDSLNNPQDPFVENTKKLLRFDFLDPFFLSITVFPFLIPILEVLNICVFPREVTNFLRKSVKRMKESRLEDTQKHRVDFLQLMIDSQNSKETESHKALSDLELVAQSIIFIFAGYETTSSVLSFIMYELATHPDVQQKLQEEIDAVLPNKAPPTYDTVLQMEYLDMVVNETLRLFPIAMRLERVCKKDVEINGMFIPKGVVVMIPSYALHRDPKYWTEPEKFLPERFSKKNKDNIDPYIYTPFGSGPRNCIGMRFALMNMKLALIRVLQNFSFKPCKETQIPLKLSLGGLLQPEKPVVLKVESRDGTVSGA

With `Cc1ccn2c(C(=O)NCc3ccc(Oc4ccc(F)cc4)cc3)c(C)nc2c1` [Compound 18] the MIC (XDR-Mtb HREKO) was under 0.01 µg/mL, the “time dependent inhibition of human CYP3A4” value (CYP3A4 [1]) was “time dependent inhibitors” and the MIC (Mtb H37Rv) was under 0.005 µM. The “MIC range against the clinical strains” value [2] was under 0.03 to 0.8 µM, the MIC [3] was under 0.01 µg/mL and the MIC [4] was under 0.01 µg/mL. The MIC (XDR-Mtb HRESKO) was under 0.01 µg/mL, the MIC (MDR-Mtb HREZSKP) was 0.03 µM to 0.8 µM and 0.01 µg/mL to 0.3 µg/mL and the MIC (MDR-Mtb HRERb) was 0.31 µg/mL (≈ 0.796 µM). For the same molecule, the MIC (MDR-Mtb HREKP) was under 0.01 µg/mL.
With `Cc1ccn2c(C(=O)NCc3ncc(C(F)(F)F)cc3Cl)c(C)nc2c1` [Compound 13] the MIC (XDR-Mtb HREKO) was 0.3 µg/mL (≈ 0.784 µM), the “time dependent inhibition of human CYP3A4” value (CYP3A4 [1]) was “time dependent inhibitors” and the “% metabolized” value [5] was 19%. It also gave an inhibition at 10 µM (CYP3A4 [6]) of 0%, an MIC [3] of 0.3 µg/mL (≈ 0.784 µM) and a fraction unbound (in vitro) of 0.089. The MIC [4] was 0.3 µg/mL (≈ 0.784 µM), the MIC (XDR-Mtb HRESKO) was 0.3 µg/mL (≈ 0.784 µM) and the MIC (MDR-Mtb HREZSKP) was 2.5 µg/mL (≈ 6.53 µM). The clearance (in vivo) was 25 mL/min/kg, the MIC (MDR-Mtb HRERb) was 13 µM to 26 µM and 5 µg/mL to 10 µg/mL and the MIC (MDR-Mtb HREKP) was 0.2 µg/mL (≈ 0.523 µM).
With `O=[N+]([O-])c1cn2c(n1)OC[C@@H](OCc1ccc(OC(F)(F)F)cc1)C2` [PA-824, reference compound] the MIC (XDR-Mtb HREKO) was 0.08 µg/mL (≈ 0.223 µM), the MIC [3] was 0.5 µM to 0.9 µM and 0.2 µg/mL to 0.3 µg/mL and the MIC [4] was over 5 µg/mL. The MIC (XDR-Mtb HRESKO) was 0.3 µg/mL (≈ 0.835 µM), the MIC (MDR-Mtb HREZSKP) was 0.5 µM to 0.9 µM and 0.2 µg/mL to 0.3 µg/mL and the MIC (MDR-Mtb HRERb) was 0.5 µM to 0.9 µM and 0.2 µg/mL to 0.3 µg/mL. For the same molecule, the MIC (MDR-Mtb HREKP) was 0.5 µM to 0.9 µM and 0.2 µg/mL to 0.3 µg/mL.
With `Cc1ccc2nc(C)c(C(=O)NCc3ccccc3)n2c1` [Compound 9] the MIC (XDR-Mtb HREKO) was under 0.01 µg/mL, the MIC [3] was 0.04 µM to 0.07 µM and 0.01 µg/mL to 0.02 µg/mL and the MIC [4] was under 0.01 µg/mL. The MIC (XDR-Mtb HRESKO) was under 0.01 µg/mL, the MIC (MDR-Mtb HREZSKP) was under 0.01 µg/mL and the MIC (MDR-Mtb HRERb) was 0.63 µg/mL (≈ 2.26 µM). The MIC (MDR-Mtb HREKP) was under 0.01 µg/mL.
